Experimental data: patent US20210395327A1, “Growth Hormone-Releasing Hormone Antagonists and Uses Thereof” (United States Government As Represented By The Department …, priority 2019, published 2021)
Entries after “also recorded” stand apart in the source; their conditions may differ. Non-standard residues stand in square brackets, D forms with d. Residues, ends and D or L forms follow the SMILES beside them. *: point of attachment. Phenylacetyl(2,3,4,5,6-F5) = O=C(Cc1c(F)c(F)c(F)c(F)c1F)*; Phe(F5) = N[C@@H](Cc1c(F)c(F)c(F)c(F)c1F)C(=O)O; Phe(4-Cl) = N[C@@H](Cc1ccc(Cl)cc1)C(=O)O; hArg = N=C(N)NCCCC[C@H](N)C(=O)O; 12Ado = NCCCCCCCCCCCC(=O)O; Nle = CCCC[C@H](N)C(=O)O; Orn = NCCC[C@H](N)C(=O)O; Abu = CC[C@H](N)C(=O)O

What was measured:
[1] = target: T1, membrane GHRH-receptors on human anterior pituitary cells (Homo sapiens, UniProt Q02643); assay: Receptor binding, displacement of 125I-[His1,Nle27]-hGH-RH(1-32)NH2 on human pituitary membranes
T1 construct: Human pituitary was purchased from the National Hormone and Peptide Program; tissue National Hormone and Peptide Program; host or cells: human pituitary (membrane fractions)
T1 sequence (Q02643 23-423): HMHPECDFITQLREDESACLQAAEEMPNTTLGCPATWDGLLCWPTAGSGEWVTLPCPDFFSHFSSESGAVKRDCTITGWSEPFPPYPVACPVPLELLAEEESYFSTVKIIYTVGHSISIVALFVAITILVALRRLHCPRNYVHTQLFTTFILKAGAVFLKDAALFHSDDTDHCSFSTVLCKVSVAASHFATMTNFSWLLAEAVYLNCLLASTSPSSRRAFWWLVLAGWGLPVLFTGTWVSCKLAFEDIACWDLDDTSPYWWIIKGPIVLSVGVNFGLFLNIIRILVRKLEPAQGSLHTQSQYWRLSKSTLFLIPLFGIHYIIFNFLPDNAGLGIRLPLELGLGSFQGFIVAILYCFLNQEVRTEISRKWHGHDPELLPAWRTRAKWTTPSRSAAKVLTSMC
Outline: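 Membrane fractions from human pituitary; peptides displace 125I-[His1,Nle27]-hGH-RH(1-32)NH2. IC50 is the dose giving 50% inhibition of specific binding, from duplicate tubes. Relative affinity is the ratio of test IC50 to hGH-RH(1-29)NH2 IC50.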

HCC827 lung cancer cells = assay: In vitro cell viability, HCC827; assay type: cell-based, human; details: Table 3B; 5 μM for 72 H; MIA-602 = 1
Outline: (§1)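 Viability by CellTiter 96 aqueous one solution (MTS) after 72 h exposure to antagonist at 5 μM (some at 2 μM), following 24 h starvation in 0.5% FBS. Results given as percentage inhibition relative to MIA602.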

[2] = system: CFPAC-1 pancreatic cancer cells; assay: In vitro cell viability, CFPAC-1; assay type: cell-based, human; details: Table 3B; 5 μM for 72 H; MIA-602 = 1
Outline: as §1

[3] = system: GH release from rat pituitary cells; assay: Inhibition of GH release from rat pituitary cells in vitro (GH ELISA); assay type: cell-based; details: analogs 20 nM, then with 1 nM GHRH(1-29)NH2 for 30 minutes; Control = 1.00
Procedure: In vitro assessment of the antagonistic activity of GHRH analogs. Rats were decapitated and pituitaries were collected in pre-warmed HBSS (Hanks' Balanced Salt Solution). Tissue was then cut into small pieces and digested in HBSS medium containing 3% BSA, 50 μg/ml gentamycin and 0.5% collagenase for 50 minutes at 37° C. Cells were further dispersed by pipetting and passed through a 100 μm cell strainer with the addition of DMEM containing 50 μg/ml gentamycin. 10% horse serum and 2.5% FBS (growth medium). Cells were harvested at 475×g for 2 minutes, resuspended in fresh growth medium and seeded onto poly-D-lysine-coated 24-well plates (7 pituitaries/plate). Cells were left to recover for 4 days. Growth medium was then replaced with serum-free DMEM for 4 hours and GHRH analogs (at concentration of 20 nM) were added in DMEM containing 0.1% BSA for 30 minutes. Cells were replenished with medium containing the same concentration of the analogs and 1 nM GHRH(1-29)NH2 for 30 minutes. Medium from this step was collected, centrifuged at 800 g for 3 minutes and GH concentration was determined by ELISA (ALPCO Diagnostics, Mill Valley, Calif.) according to the manufacturer's instruction.

Row | IC50 ([1]; membrane receptors on human anterior pituitary cells, mean of two to three determinations, read-out: IC50) [nM] | Structure (SMILES) | binding affinity to membrane receptors of human pituitary cells (in words) ([1]; competitive binding, human pituitary membrane fractions) | In vitro relative inhibitory potency in comparison to MIA-602, HCC827 (HCC827 lung cancer cells) | In vitro relative inhibitory potency in comparison to MIA-602, CFPAC-1 [2] | Relative GH release [3]
1 | – | CCCC[C@H](NC(=O)[C@@H](NC(=O)[C@H](CC(=O)O)NC(=O)[C@H](CCC(N)=O)NC(=O)[C@H](CC(C)C)NC(=O)[C@H](CC(C)C)NC(=O)[C@H](CCCCN)NC(=O)[C@H](CCCNC(=N)N)NC(=O)[C@H](C)NC(=O)[C@H](CO)NC(=O)[C@H](CC(C)C)NC(=O)[C@H](CCC(N)=O)NC(=O)[C@H](CC)NC(=O)[C@H](CC(C)C)NC(=O)[C@@H](NC(=O)[C@H](CCCCN)NC(=O)[C@H](CCCNC(=N)N)NC(=O)[C@H](Cc1c(F)c(F)c(F)c(F)c1F)NC(=O)[C@H](CCCCNC(=N)N)NC(=O)[C@H](C)NC(=O)[C@@H](NC(=O)[C@H](Cc1ccc(Cl)cc1)NC(=O)[C@@H](NC(=O)[C@H](C)NC(=O)[C@H](CC(=O)O)NC(=O)[C@@H](CCCNC(=N)N)NC(=O)[C@H](Cc1ccc(O)cc1)NC(=O)CCCCCCCCCCCNC(=O)Cc1c(F)c(F)c(F)c(F)c1F)[C@@H](C)CC)[C@@H](C)O)C(C)C)[C@@H](C)CC)C(=O)N[C@H](CCCNC(=N)N)C(=O)N[C@@H](CCCCNC(=N)N)C(=O)NCCCCCCCCCCCC(=O)NC [AVR-354] ({Phenylacetyl(2,3,4,5,6-F5)-12Ado}-Y[dR]DAI[Phe(4-Cl)]TA[hArg][Phe(F5)]RKVL[Abu]QLSARKLLQDI[Nle][dR][hArg][12Ado]-NHMe) | higher binding affinity in comparison to MIA-602; also recorded: highest binding affinities | 2.595 | 1.67 | 0.90 ± 0.02
2 | 0.25 | CCCC[C@H](NC(=O)[C@@H](NC(=O)[C@H](CC(=O)O)NC(=O)[C@H](CCC(N)=O)NC(=O)[C@H](CC(C)C)NC(=O)[C@H](CC(C)C)NC(=O)[C@H](CCCN)NC(=O)[C@H](Cc1c[nH]cn1)NC(=O)[C@H](C)NC(=O)[C@H](CO)NC(=O)[C@H](CC(C)C)NC(=O)[C@H](CCC(N)=O)NC(=O)[C@H](CC)NC(=O)[C@H](CC(C)C)NC(=O)[C@@H](NC(=O)[C@H](CCCN)NC(=O)[C@H](Cc1c[nH]cn1)NC(=O)[C@H](Cc1c(F)c(F)c(F)c(F)c1F)NC(=O)[C@H](CCCCNC(=N)N)NC(=O)[C@H](C)NC(=O)[C@@H](NC(=O)[C@H](Cc1ccc(Cl)cc1)NC(=O)[C@@H](NC(=O)[C@H](C)NC(=O)[C@H](CC(=O)O)NC(=O)[C@@H](CCCNC(=N)N)NC(=O)[C@H](Cc1ccc(O)cc1)NC(=O)CCCCCCCCCCCNC(=O)Cc1c(F)c(F)c(F)c(F)c1F)[C@@H](C)CC)[C@@H](C)O)C(C)C)[C@@H](C)CC)C(=O)N[C@H](CCCNC(=N)N)C(=O)N[C@@H](CCCCNC(=N)N)C(=O)NCCCCCCCCCCCC(=O)NC [AVR-543, 5FPhAC-Ada-Tyr-DArg-Asp-Ala-Ile-Cpa-Thr-Ala-Har-5FPhe-His-Orn-Val-Leu-Abu-Gln-Leu-Ser-Ala-His-Orn-Leu-Leu-Gln-Asp-Ile-Nle-DArg-Har-Ada-NHCH3] ({Phenylacetyl(2,3,4,5,6-F5)-12Ado}-Y[dR]DAI[Phe(4-Cl)]TA[hArg][Phe(F5)]H[Orn]VL[Abu]QLSAH[Orn]LLQDI[Nle][dR][hArg][12Ado]-NHMe) | – | 0.961 | 2.05 | 1.10 ± 0.01
